# Calls of active or inactive are those of the source.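 How the source made its calls: active means at 10 µM dose, any replicate showing 50% or greater reduction of parasite growth in red cells; inactive means the rest.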
# Test system: P. falciparum 3D7 in RBCs, 3H-hypoxanthine uptake, 48 h
# Assay: P. falciparum growth inhibition in erythrocytes, late-stage follow-up, M17LAP inhibitor project, cell-based, radiolabel, RBCs, powder samples (AID 492955)
# Settings: at 10 µM; hits give high values
row,Structure (SMILES),inhibition
1,O=C(CSc1nc(O)cc(=O)n1-c1ccccc1)Nc1ccc2c3c(cccc13)CC2,3% (inactive)
2,COc1ccc(-c2cc(=O)[nH][nH]2)cc1OC,3.83% (inactive)
3,COc1cc(NC(=O)CSc2nc3ccccc3cc2C)c(C(=O)O)cc1OC,5.89% (inactive)
4,COC(=O)c1c(NC(=O)[C@H]2CC=CC[C@H]2C(=O)O)sc(C)c1C,1.33% (inactive)
5,COc1cc(NC(=O)CSc2nc3cc(C)ccc3cc2C)c(C(=O)O)cc1OC,5.17% (inactive)
6,CCCCOc1ccc(CC(=O)NO)cc1,81.2%
7,O=c1cc(-c2ccc(Cl)c(Cl)c2)[nH][nH]1,2.67% (inactive)
8,Cc1cc(C(=O)COC(=O)c2ccc[nH]c2=O)c(C)n1-c1ccc(F)cc1,0% (inactive)
9,CCc1cc2cc3c(cc2nc1SCC(=O)Nc1cc(OC)c(OC)cc1C(=O)O)OCO3,0% (inactive)
10,COc1ccc(NC(=O)CSC2=NC(=O)CC(C)=N2)cc1,0% (inactive)
11,CC1=C(C)C[C@@H](C(=O)O)[C@@H](C(=O)Nc2cccc([N+](=O)[O-])c2)C1,11.2% (inactive)
12,Cc1cc(C(=O)COC(=O)c2ccc[nH]c2=O)c(C)n1-c1ccccc1,6.67% (inactive)
13,Cc1ccc(Nc2nnc(SC3CCOC3=O)s2)cc1 (stereo unspecified),4% (inactive)
14,COC(=O)c1c(-c2cc(C)ccc2C)csc1NC(=O)[C@@H]1CC=CC[C@@H]1C(=O)O,3.33% (inactive)
15,CCOC(=O)c1c(NC(=O)[C@@H]2C3C=CC(C3)[C@@H]2C(=O)O)sc2c1CCC(CC)C2 (stereo partly specified),5% (inactive)
16,CCOC(=O)c1c(NC(=O)[C@@H]2C3CCC(O3)[C@@H]2C(=O)O)sc(C)c1-c1ccc(C)cc1 (stereo partly specified),0% (inactive)
17,O=c1cc(-c2ccc(F)cc2)[nH][nH]1,5.67% (inactive)
18,O=C(Nc1cc(Cl)ccc1Cl)[C@H]1CC=CC[C@H]1C(=O)O,1.33% (inactive)
19,CCc1cc2ccccc2nc1SCC(=O)Nc1cc(OC)c(OC)cc1C(=O)O,2.78% (inactive)
20,CCOC(=O)c1c(-c2ccc(C)cc2)csc1NC(=O)[C@H]1CC=CC[C@H]1C(=O)O,10.7% (inactive)
21,COc1ccc2nc(SCC(=O)Nc3cc(OC)c(OC)cc3C(=O)O)c(C)cc2c1,1.44% (inactive)
22,COc1ccc(C(C)(C)C)cc1NC(=O)[C@H]1CC=CC[C@H]1C(=O)O,0% (inactive)

row,Structure (SMILES),inhibition
1,CC1=Nc2ccc(C)cc2/C1=C/c1c(N)n2c(S(=O)(=O)C(C)C)nsc2nc1=O,19.2% (inactive)
2,C=CCn1c(SCC(=O)Nc2cccc3ccccc23)nc(O)c(CC)c1=O,8.22% (inactive)
3,S=c1nc(-c2cccc(Cl)c2)[nH][nH]1,0% (inactive)
4,O=C(CSc1nnc(Nc2ccccc2)s1)NN1C(=O)NC2(CCCCC2)C1=O,12.9% (inactive)
5,CCc1nnc(NC(=O)CSc2nnc(-c3ccc(NS(=O)(=O)c4ccccc4)cc3)o2)s1,2.33% (inactive)
6,CCOC(=O)c1c(-c2cccc(C)c2)csc1NC(=O)[C@H]1CC=CC[C@H]1C(=O)O,1.83% (inactive)
7,COc1ccc(-c2cc(=O)[nH][nH]2)cc1,0% (inactive)
8,CCc1cc2ccc(C)cc2nc1SCC(=O)Nc1cc(OC)c(OC)cc1C(=O)O,6.44% (inactive)
9,COC(=O)c1c(-c2ccc(C)cc2)csc1NC(=O)[C@H]1CC=CC[C@H]1C(=O)O,0% (inactive)
10,O=C(CSc1nccc(=O)[nH]1)Nc1ccc(Br)c(Cl)c1,8.67% (inactive)
11,Cc1ccc(-n2c(C)cc(C(=O)COC(=O)c3ccc[nH]c3=O)c2C)cc1,20% (inactive)
12,CC(C)c1ccc(NC(=O)[C@H]2CCCC[C@H]2C(=O)O)cc1,5.67% (inactive)
13,CCCCc1c(O)nc(SCC(=O)Nc2ccc3c(c2)CCC3)[nH]c1=O,7.67% (inactive)
14,CCc1ccc(Nc2nnc(SC3CCOC3=O)s2)cc1 (stereo unspecified),0% (inactive)
15,COC(=O)c1c(NC(=O)[C@H]2CCCC[C@H]2C(=O)O)sc2c1CCCCC2,3.33% (inactive)
16,O=C(Nc1cccc(Cl)c1)[C@H]1CC=CC[C@H]1C(=O)O,0.333% (inactive)
17,COC(=O)c1c(-c2ccco2)csc1NC(=O)[C@H]1CC=CC[C@H]1C(=O)O,0% (inactive)
18,CN1C(=O)/C(=C/c2ccc(-c3ccccc3[N+](=O)[O-])o2)SC1=Nc1ccc(Cl)c(C(=O)O)c1,0% (inactive)
19,CC(=O)NS(=O)(=O)c1ccc(N=c2ssc3c2-c2ccc(C)cc2NC3(C)C)cc1,4.5% (inactive)
20,COc1ccc(NC(=O)CSc2nc(O)cc(=O)n2C)cc1,3.67% (inactive)
21,CCN(CC)c1ccc(NC(=O)CSc2nc(C)cc(=O)[nH]2)cc1,3.5% (inactive)
22,Cn1c(SCC(=O)Nc2cccc3ccccc23)nc(O)cc1=O,2.5% (inactive)

row,Structure (SMILES),inhibition
1,Cc1ccc(-c2c(C)sc(NC(=O)[C@@H]3C4CCC(O4)[C@@H]3C(=O)O)c2C(=O)OC(C)C)cc1 (stereo partly specified),6.33% (inactive)
2,CCn1c2ccccc2c2cc(NC(=O)CSc3nccc(=O)[nH]3)ccc21,2.67% (inactive)
3,O=C(O)Cc1ccc(NC(=O)Nc2ccc(Br)cc2)cc1,1.67% (inactive)
4,Cc1ccc(-c2cccc(NC(=O)[C@@H]3C4C=CC(C4)[C@@H]3C(=O)O)c2)o1 (stereo partly specified),8.83% (inactive)
5,COC(=O)c1cccc(NC(=O)CSc2nc(C)cc(=O)[nH]2)c1,9.78% (inactive)
6,Cc1ccc(NC(=O)CSc2nnc(C)c(=O)[nH]2)cc1C,15.8% (inactive)
7,O=C(Nc1ccc(Cl)cc1)Nc1cccc(C(=O)O)c1,0% (inactive)
8,COc1cc(NC(=O)CSc2nc3c(C)ccc(C)c3cc2C)c(C(=O)O)cc1OC,5% (inactive)
9,CCOc1ccc(NC(=O)Nc2ccc3nccnc3c2)cc1,16% (inactive)
10,Cc1ccc(Nc2nnc(SCc3cc(=O)n4ccsc4n3)s2)c(C)c1,18.4% (inactive)
11,Cc1noc(NS(=O)(=O)c2ccc(NC(=O)CSc3nnc4c(n3)[nH]c3ccccc34)cc2)c1C,1.67% (inactive)
12,S=c1nc(-c2ccccc2Br)[nH][nH]1,0% (inactive)
13,COc1cc(NC(=O)CSc2nnc3c(C)cc4cc(C)cc(C)c4n23)c(C(=O)O)cc1OC,7.56% (inactive)
14,CCc1cc2cc(OC)ccc2nc1SCC(=O)Nc1cc(OC)c(OC)cc1C(=O)O,2.33% (inactive)
15,CCOc1ccc(NC(=O)Nc2cccs2)cc1,0% (inactive)
16,CCc1ccc(NC(=O)[C@H]2CC=CC[C@H]2C(=O)O)cc1,0% (inactive)
17,Cc1ccc(-n2c(C)cc(C(=O)COC(=O)c3ccc[nH]c3=O)c2C)cc1C,3.17% (inactive)
18,COc1cc(NC(=O)CSc2ncnc3scc(-c4ccccc4)c23)c(C(=O)O)cc1OC,6.83% (inactive)
19,N#Cc1c(NC(=O)[C@@H]2C3C=CC(C3)[C@@H]2C(=O)O)sc2c1CCCCC2 (stereo partly specified),0% (inactive)
20,O=C(O)CCCCCNC(=O)Nc1ccc2c(c1)OCCO2,6.33% (inactive)
21,N#Cc1c(-c2ccccc2)nc(SCC(=O)N2c3ccccc3Sc3ccccc32)[nH]c1=O,1% (inactive)
22,CCOc1cccc(-c2cc(=O)[nH][nH]2)c1,2.83% (inactive)

# Reference: PubChem BioAssay AID492955 (The Scripps Research Institute Molecular Screening Center, 2010)
